Experimental data: PMC7803973, “Structural basis of malaria parasite phenylalanine tRNA-synthetase inhibition by bicyclic azetidines” (Nature Communications, 2021)

Tests used:
PfcFRS = biological target: T1, PfcFRS (Plasmodium falciparum, UniProt Q8I246); test: Malachite green aminoacylation enzyme inhibition assay; format: biochemical
T1 sequence (Q8I246 1-575): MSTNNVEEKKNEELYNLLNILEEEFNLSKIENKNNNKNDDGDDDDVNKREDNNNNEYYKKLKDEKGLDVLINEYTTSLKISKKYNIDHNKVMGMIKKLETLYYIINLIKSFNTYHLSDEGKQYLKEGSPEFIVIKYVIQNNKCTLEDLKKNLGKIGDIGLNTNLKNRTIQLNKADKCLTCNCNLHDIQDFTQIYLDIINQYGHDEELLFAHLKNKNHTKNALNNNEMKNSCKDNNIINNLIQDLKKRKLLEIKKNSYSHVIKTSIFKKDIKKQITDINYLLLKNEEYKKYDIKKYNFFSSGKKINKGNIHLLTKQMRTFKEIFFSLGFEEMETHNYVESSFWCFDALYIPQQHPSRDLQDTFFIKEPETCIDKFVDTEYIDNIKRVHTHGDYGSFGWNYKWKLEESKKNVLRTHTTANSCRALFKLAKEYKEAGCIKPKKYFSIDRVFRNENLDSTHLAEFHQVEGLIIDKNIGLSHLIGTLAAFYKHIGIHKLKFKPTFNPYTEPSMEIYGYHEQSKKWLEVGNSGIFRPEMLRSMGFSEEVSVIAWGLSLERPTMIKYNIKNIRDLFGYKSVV
T1 sequence (Q8IIW2 1-623 partner): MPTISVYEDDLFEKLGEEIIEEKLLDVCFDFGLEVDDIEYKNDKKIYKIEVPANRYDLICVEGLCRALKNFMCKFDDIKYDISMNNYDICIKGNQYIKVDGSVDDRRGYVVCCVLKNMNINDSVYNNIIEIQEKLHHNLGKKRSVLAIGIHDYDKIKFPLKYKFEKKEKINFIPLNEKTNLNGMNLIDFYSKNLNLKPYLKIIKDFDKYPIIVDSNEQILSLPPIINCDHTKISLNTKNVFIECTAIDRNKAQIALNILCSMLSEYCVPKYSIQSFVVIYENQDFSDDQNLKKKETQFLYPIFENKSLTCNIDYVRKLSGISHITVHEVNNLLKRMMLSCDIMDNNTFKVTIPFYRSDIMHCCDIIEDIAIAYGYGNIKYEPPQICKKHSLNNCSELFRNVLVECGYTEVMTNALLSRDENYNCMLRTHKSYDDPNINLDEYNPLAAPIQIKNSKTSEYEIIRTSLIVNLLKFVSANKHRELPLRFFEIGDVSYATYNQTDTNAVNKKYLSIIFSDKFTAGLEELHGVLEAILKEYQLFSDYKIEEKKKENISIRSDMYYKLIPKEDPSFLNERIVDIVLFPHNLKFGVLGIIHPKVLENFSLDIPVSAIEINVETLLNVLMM
Description: (§1) These were done using malachite green assay as per earlier published reports[1],[6]. Briefly, the reaction was performed for 100 µM ATP, 50 µM L-phenylalanine and 100 nM recombinant PheRS enzymes (Pf, Pv, Hs, Pf mutant (L550V)) in a buffer containing 30 mM HEPES (pH 7.5), 150 mM, NaCl, 30 mM KCl, 50 mM, MgCl2, 1 mM DTT, and 2 U/ml E. coli inorganic pyrophosphatase (NEB) at 37 °C. Enzymatic reactions (50 μl total volume) were performed in clear, flat-bottomed, 96-well plates (Costar 96-well standard microplates). The reaction mixture was incubated for 2 h at 37 °C. The reaction was stopped by adding 12.5 μl of malachite green solution to the reaction mixture and levels of inorganic phosphate (Pi) were detected after incubation of 5 min at room temperature. Absorbance was the measured at 620 nm using a Spectramax M2 (Molecular Devices). Reactions without FRS enzyme were performed as background controls, values of which were subtracted from the reactions with enzyme. BRD1389 was added to our aminoacylation assay reaction buffer in varying concentrations ranging from 0.1 nM to 10,000 nM. The IC50 value for the data is shown for three replicates as the mean ± SD.

PvcFRS = biological target: T2, PvcFRS (Plasmodium vivax, UniProt A5K9S0); test: as above; format: biochemical
T2 construct: Full-length PvcFRS was also purified according to the same protocol; vector-encoded tag of pETM11 (own knowledge: N-terminal His6 with TEV site); Ni-NTA purification; made in house; host or cells: E. coli strain B834
T2 sequence (A5K464 whole entry): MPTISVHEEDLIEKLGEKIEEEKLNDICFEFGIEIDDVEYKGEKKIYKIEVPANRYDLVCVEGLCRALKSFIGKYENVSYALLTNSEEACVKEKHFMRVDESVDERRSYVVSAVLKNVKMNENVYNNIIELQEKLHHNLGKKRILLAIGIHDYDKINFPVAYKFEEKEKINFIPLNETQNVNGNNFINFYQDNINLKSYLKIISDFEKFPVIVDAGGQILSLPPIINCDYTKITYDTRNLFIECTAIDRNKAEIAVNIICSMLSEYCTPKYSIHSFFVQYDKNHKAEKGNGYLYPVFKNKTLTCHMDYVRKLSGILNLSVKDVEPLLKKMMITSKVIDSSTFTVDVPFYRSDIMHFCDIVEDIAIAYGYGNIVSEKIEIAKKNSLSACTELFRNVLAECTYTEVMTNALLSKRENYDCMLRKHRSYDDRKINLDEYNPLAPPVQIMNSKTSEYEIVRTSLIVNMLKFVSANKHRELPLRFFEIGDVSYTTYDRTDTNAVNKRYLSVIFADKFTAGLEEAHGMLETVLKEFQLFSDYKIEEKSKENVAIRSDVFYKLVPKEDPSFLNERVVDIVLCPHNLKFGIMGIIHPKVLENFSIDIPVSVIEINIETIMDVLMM
T2 sequence (A5K9S0 whole entry): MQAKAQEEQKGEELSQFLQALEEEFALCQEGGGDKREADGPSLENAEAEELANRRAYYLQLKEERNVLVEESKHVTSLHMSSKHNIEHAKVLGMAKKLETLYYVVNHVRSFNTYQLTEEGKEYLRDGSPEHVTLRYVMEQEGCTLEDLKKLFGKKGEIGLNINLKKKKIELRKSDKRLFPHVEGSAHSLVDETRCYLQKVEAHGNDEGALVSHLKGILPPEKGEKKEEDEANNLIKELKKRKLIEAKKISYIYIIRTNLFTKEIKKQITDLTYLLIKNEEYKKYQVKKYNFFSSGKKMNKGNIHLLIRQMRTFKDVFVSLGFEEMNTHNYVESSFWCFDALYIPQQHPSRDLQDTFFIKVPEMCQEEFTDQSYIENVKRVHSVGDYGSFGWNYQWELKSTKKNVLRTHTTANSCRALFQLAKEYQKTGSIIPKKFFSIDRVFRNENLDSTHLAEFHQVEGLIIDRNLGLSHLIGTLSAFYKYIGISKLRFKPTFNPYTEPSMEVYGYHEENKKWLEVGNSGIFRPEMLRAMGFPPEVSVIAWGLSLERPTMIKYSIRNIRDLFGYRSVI
Description: as §1

Dd2 = test: Whole parasite growth inhibition (Dd2), quoted in peer review file; format: cell-based; settings: quoted by Reviewer #2 from the submitted manuscript
[1] = 2 h, read-out: % Enzyme Activity

COC[C@@H]1[C@H](c2ccc(C#Cc3ccccc3)cc2)[C@@H]2CN(C(=O)Nc3ccc(OC4CC4)cc3)C[C@@H](O)[C@@H](O)CN12 [BRD1389]
remaining activity at 1 pM (PfcFRS; [1]): 100% | remaining activity at 0.0001 µM (PfcFRS; 2 h, PfcFRS, BRD1389 0.0001 uM): 98.4% | remaining activity at 0.001 µM (PfcFRS; 2 h, PfcFRS, BRD1389 0.001 uM): 85.2% | remaining activity at 0.01 µM (PfcFRS; 2 h, PfcFRS, BRD1389 0.01 uM): 46.7% | remaining activity at 0.1 µM (PfcFRS; 2 h, PfcFRS, BRD1389 0.1 uM): 9.72% | remaining activity at 1 µM (PfcFRS; 2 h, PfcFRS, BRD1389 1 uM): 4.61% | remaining activity at 10 µM (PfcFRS; 2 h, PfcFRS, BRD1389 10 uM): 1.17% | remaining activity at 100 µM (PfcFRS; 2 h, PfcFRS, BRD1389 100 uM): 0% | IC50 (PfcFRS; Pf cFRS aminoacylation activity): 12 ± 0.8 nM | remaining activity at 1 pM (PvcFRS; [1]): 100% | IC50 (PvcFRS; Pv cFRS aminoacylation activity): 25 ± 1 nM | remaining activity at 0.0001 µM (PvcFRS; PvcFRS, BRD1389 0.0001 uM): 95.4% | remaining activity at 0.001 µM (PvcFRS; PvcFRS, BRD1389 0.001 uM): 86.2% | remaining activity at 0.01 µM (PvcFRS; PvcFRS, BRD1389 0.01 uM): 60.7% | remaining activity at 0.1 µM (PvcFRS; PvcFRS, BRD1389 0.1 uM): 20.7% | remaining activity at 1 µM (PvcFRS; PvcFRS, BRD1389 1 uM): 8.61% | remaining activity at 10 µM (PvcFRS; PvcFRS, BRD1389 10 uM): 2.17% | remaining activity at 100 µM (PvcFRS; PvcFRS, BRD1389 100 uM): 0% | Dd2 growth inhibitory activity (Dd2): < 1 nM
